Data published in patent publication US9938249B2, “Anti-amyloid compounds containing benzofurazan” (Treventis Corporation, priority 2014, dated 2018).

Legend:
[1] = target: Terminally biotinylated beta-amyloid (Aβ42) (Homo sapiens, UniProt P05067); experiment: Aβ42 biotinylated (biotin-AB) oligomerization assay, NeutrAvidin capture ELISA; assay type: biochemical; settings: approximate value; 1 hr oligomerization at room temperature; read-out: IC50 Aβ 42-bio
Summary of the method: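 Biotin-Aβ42, pretreated with HFIP/TFA to remove seeds, oligomerized 1 h at room temperature with compound in 20 mM sodium phosphate pH 7.5, 150 mM NaCl (DMSO up to 1%). Oligomers captured on NeutrAvidin plates, detected with streptavidin-HRP/TMB at 450 nm; IC50 approximate, in µM.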

[2] = target: Aβ40 (Homo sapiens, UniProt P05067); experiment: ThT Aβ aggregation assay (kinetic Thioflavin T fluorescence); assay type: biochemical; settings: 20 μM Aβ, DMSO control at 80 hr = 0% inhibition, number in parenthesis = compound ID 1027 in that experiment; for inhibition at 10 µM: compound 10 μM, read-out: % inhib Thioflavin T Aβ 40 10 μM; for inhibition at 5 µM: 80 h, compound 5 μm (so in the source), read-out: % inhib Thioflavin T Aβ 40 (5 μm)
Aβ40, sequence (P05067 672-711, species assumed): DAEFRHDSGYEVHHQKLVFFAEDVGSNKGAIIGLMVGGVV
Protocol: Preparation of Aβ40 Stock Solutions
Aβ40 (1.0 mg) was pre-treated in a 1.5 mL microfuge tube with HFIP (1 mL) and sonicated for 20 min to disassemble any pre-formed Aβ aggregates. The HFIP was removed with a stream of argon and the Aβ dissolved in Tris base (5.8 mL, 20 mM, pH ˜10). The pH was adjusted to 7.4 with concentrated HCl (˜10 μL) and the solution filtered using a syringe filter (0.2 μm) before being used.
The kinetic ThT assay for Aβ aggregation is similar to that of Chalifour et al (Chalifour et al, 2003, J. Biol. Chem. 278:34874-81). Briefly, pre-treated Aβ40 or Aβ42 (40 μM in 20 mM Tris, pH 7.4) was diluted with an equal volume of 8 μM Thioflavin T (ThT) in Tris (20 mM, pH 7.4, 300 mM NaCl). Aliquots of Aβ/ThT (200 μL) were added to wells of a black polystyrene 96-well plate, followed by 2 μL of a compound in DMSO (variable concentration), or DMSO alone (controls). Incubations were performed in triplicate and were taken to contain 20 μM Aβ, various concentration of compound in 20 mM Tris, pH 7.4, 150 mM NaCl, 1% DMSO. Plates were covered with clear polystyrene lids and incubated at 37° C. in a Tecan Genios microplate reader.
Analysis of ThT and ThS Aggregation Assays
Fluorescence readings (λex=450 nm, λem=480 nm) were taken every 15 min., after first shaking at high intensity for 15 s and allowing to settle for 10 s before each reading. Active compounds attenuated the increase in fluorescence over time that occurred in controls. In FIGS. 1-7, the time this procedure was performed extended to 80 hours (rightmost part of X-axis), at which point fluorescence increase generally reached an asymptote. Applying a definition of DMSO control at 80 hr as 100% aggregation (0% inhibition) and DMSO control at 0 hr as 0% aggregation (100% inhibition), a % inhibition score where higher is better can be calculated for a given concentration of compound. By repeating this procedure over several concentrations, a […] (IC50) can be measured, as is given in the table below for some compounds.

Terminally biotinylated beta-amyloid (Aβ42), sequence (P05067 672-713, species assumed): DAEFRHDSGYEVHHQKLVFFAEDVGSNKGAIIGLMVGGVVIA

IC50 [1] [µM]	inhibition at 10 µM [2] [%]	inhibition at 5 µM [2] [%]	SMILES
2.63	26	–	c1ccc2oc(-c3cc(N4CC(CN5CCCC5)C4)c4nonc4c3)cc2c1 [compound 1485]
19.7	32	–	c1ccc(-c2cc(N3CC(CN4CCCC4)C3)c3nonc3c2)cc1 [compound 1486]
8.69	31	–	COc1ccc(-c2cc(N3CC(CN4CCCC4)C3)c3nonc3c2)cc1C [compound 1488]
1.6	34	–	CC(C)c1ccc(-c2cc(N3CC(CN4CCCC4)C3)c3nonc3c2)cc1 [compound 1489]
4.4	27	–	Cc1ccc(-c2cc(N3CC(CN4CCCC4)C3)c3nonc3c2)cc1Cl [compound 1490]
4.8	22	–	COc1ccc(-c2cc(N3CC(CN4CCCC4)C3)c3nonc3c2)cc1Cl [compound 1492]
12.9	57	–	N#Cc1cccc(-c2cc(N3CC(CN4CCCC4)C3)c3nonc3c2)c1 [compound 1493]
13.5	41	–	Clc1ccc(-c2cc(N3CC(CN4CCCC4)C3)c3nonc3c2)cn1 [compound 1496]
23.3	34	–	OCc1ccccc1-c1cc(N2CC(CN3CCCC3)C2)c2nonc2c1 [compound 1499]
4.62	62	–	Clc1cccc(-c2cc(N3CC(CN4CCCC4)C3)c3nonc3c2)c1 [compound 1505]
4.44	44	–	Cc1cc(C)cc(-c2cc(N3CC(CN4CCCC4)C3)c3nonc3c2)c1 [compound 1506]
> 20	71	–	c1cc(-c2cc(N3CC(CN4CCCC4)C3)c3nonc3c2)cs1 [compound 1509]
> 20	65	–	c1cc(-c2cc(N3CC(CN4CCCC4)C3)c3nonc3c2)co1 [compound 1510]
12	77	–	CC(=O)c1ccc(-c2cc(N3CC(CN4CCCC4)C3)c3nonc3c2)cc1 [compound 1512]
14.9	61	–	CN1CCC=C(c2cc(N3CC(CN4CCCC4)C3)c3nonc3c2)C1 [compound 1524]
13.2	63	–	c1cc(-c2cc(N3CC(CN4CCCC4)C3)c3nonc3c2)n[nH]1 [compound 1525]
5.8	60	–	c1n[nH]cc1-c1cc(N2CC(CN3CCCC3)C2)c2nonc2c1 [compound 1526]
7.5	49	–	Cn1cc(-c2cc(N3CC(CN4CCCC4)C3)c3nonc3c2)cn1 [compound 1527]
7.8	50	–	c1cc(-c2cc(N3CC(CN4CCCC4)C3)c3nonc3c2)ccn1 [compound 1528]
9	74	–	c1csc(-c2cc(N3CC(CN4CCCC4)C3)c3nonc3c2)c1 [compound 1529]
10.5	79	–	c1coc(-c2cc(N3CC(CN4CCCC4)C3)c3nonc3c2)c1 [compound 1530]
27.1	68	–	CSc1ccccc1-c1cc(N2CC(CN3CCCC3)C2)c2nonc2c1 [compound 1532]
4.2	61	43	Cn1nccc1-c1cc(N2CC(CN3CCCC3)C2)c2nonc2c1 [compound 1536]

The next lines start with the molecule.

SMILES	IC50 [1] [µM]	inhibition at 10 µM [2] [%]	inhibition at 5 µM [2] [%]
FC(F)(F)c1cccc(-c2cc(N3CC(CN4CCCC4)C3)c3nonc3c2)c1 [compound 1484]	6.5	56	–
CC(C)(C)c1ccc(-c2cc(N3CC(CN4CCCC4)C3)c3nonc3c2)cc1 [compound 1487]	0.62	33	–
c1ccc(Oc2ccc(-c3cc(N4CC(CN5CCCC5)C4)c4nonc4c3)cc2)cc1 [compound 1491]	0.52	32	–
Cc1ccc(-c2cc(N3CC(CN4CCCC4)C3)c3nonc3c2)c2ccccc12 [compound 1494]	2.01	45	–
FC(F)(F)Oc1ccccc1-c1cc(N2CC(CN3CCCC3)C2)c2nonc2c1 [compound 1495]	5.91	64	–
O=C(C1CN(c2cc(Br)cc3nonc23)C1)N1CCCC1 [compound 1497]	> 20	65	–
O=C(C1CN(c2cc(-c3cccc(C(O)C(F)(F)F)c3)cc3nonc23)C1)N1CCCC1 (centres unmarked) [compound 1498]	10.8	48	–
COc1cccc(-c2cc(N3CC(CN4CCCC4)C3)c3nonc3c2)c1OC [compound 1500]	> 20	51	–
CS(=O)(=O)c1ccc(-c2cc(N3CC(CN4CCCC4)C3)c3nonc3c2)cc1 [compound 1501]	> 20	48	–
FC(F)(F)c1ccc(-c2cc(N3CC(CN4CCCC4)C3)c3nonc3c2)cc1 [compound 1502]	4.78	55	–
CC(=O)N1CC=C(c2cc(N3CC(CN4CCCC4)C3)c3nonc3c2)CC1 [compound 1503]	> 20	33	–
c1ccc(Oc2ccccc2-c2cc(N3CC(CN4CCCC4)C3)c3nonc3c2)cc1 [compound 1504]	5.27	72	–
CCCc1ccc(-c2cc(N3CC(CN4CCCC4)C3)c3nonc3c2)cc1 [compound 1507]	2.46	83	–
COc1cccc(OC)c1-c1cc(N2CC(CN3CCCC3)C2)c2nonc2c1 [compound 1511]	21.3	27	–
FC(F)(F)c1ccccc1-c1cc(N2CC(CN3CCCC3)C2)c2nonc2c1 [compound 1514]	11.2	57	–
COc1ccc(-c2cc(N3CC(CN4CCCC4)C3)c3nonc3c2)c(OC)c1 [compound 1515]	16.7	61	–
CN(C)C(=O)c1ccc(-c2cc(N3CC(CN4CCCC4)C3)c3nonc3c2)cc1 [compound 1516]	> 20	47	–
CN1CC=C(c2cc(N3CC(CN4CCCC4)C3)c3nonc3c2)CC1 [compound 1517]	6.8	33	–
CS(=O)(=O)N1CC=C(c2cc(N3CC(CN4CCCC4)C3)c3nonc3c2)CC1 [compound 1518]	> 20	35	–
COCCN1CC=C(c2cc(N3CC(CN4CCCC4)C3)c3nonc3c2)CC1 [compound 1519]	8.2	53	–
OC(c1cc(N2CC(CN3CCCC3)C2)c2nonc2c1)C(F)(F)F (centres unmarked) [compound 1520]	6.1	46	–
CC(=O)N1CCC=C(c2cc(N3CC(CN4CCCC4)C3)c3nonc3c2)C1 [compound 1521]	30.1	20	–
CS(=O)(=O)N1CCC=C(c2cc(N3CC(CN4CCCC4)C3)c3nonc3c2)C1 [compound 1522]	10.1	44	–
COCCN1CCC=C(c2cc(N3CC(CN4CCCC4)C3)c3nonc3c2)C1 [compound 1523]	1.3	55	–
CN(C)C(=O)c1cccc(-c2cc(N3CC(CN4CCCC4)C3)c3nonc3c2)c1 [compound 1531]	2.7	45	–
CS(=O)(=O)N1C=C(c2cc(N3CC(CN4CCCC4)C3)c3nonc3c2)CCC1 [compound 1533]	5.6	35	–
CC(=O)N1C=C(c2cc(N3CC(CN4CCCC4)C3)c3nonc3c2)CCC1 [compound 1534]	3.5	67	–
OC(c1cc(-c2cc(N3CC(CN4CCCC4)C3)c3nonc3c2)cs1)C(F)(F)F (centres unmarked) [compound 1535]	2.9	77	71
